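Test compounds were applied to cells in 96-well plates for 48 hours at 5 doses. At the TGI there is no net growth.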
Key:
Assay in all cases: NCI-60 cell line screen, 48 h
[1] = test system: 786-0 renal
[2] = test system: A498 renal
[3] = test system: A549 NSCLC
[4] = test system: ACHN renal
[5] = test system: CAKI-1 renal
[6] = test system: COLO 205 colon
[7] = test system: DLD-1 colon
[8] = test system: DMS 114 small cell lung
[9] = test system: DMS 273 small cell lung
[10] = test system: EKVX NSCLC
[11] = test system: HCC-2998 colon
[12] = test system: HCT-116 colon
[13] = test system: HCT-15 colon
[14] = test system: HL-60(TB) leukemia
[15] = test system: HOP-62 NSCLC
[16] = test system: HOP-92 NSCLC
[17] = test system: HT29 colon
[18] = test system: IGROV1 ovarian
[19] = test system: K-562 leukemia
[20] = test system: KM20L2 colon
[21] = test system: LOX IMVI melanoma
[22] = test system: LXFL 529 NSCLC
[23] = test system: M14 melanoma
[24] = test system: M19-MEL melanoma
[25] = test system: MALME-3M melanoma
[26] = test system: MOLT-4 leukemia
[27] = test system: NCI-H226 lung
[28] = test system: NCI-H23 lung
[29] = test system: NCI-H460 lung
[30] = test system: NCI-H522 lung
[31] = test system: OVCAR-3 ovarian
[32] = test system: OVCAR-4 ovarian
[33] = test system: OVCAR-5 ovarian
[34] = test system: OVCAR-8 ovarian
[35] = test system: RPMI-8226 leukemia
[36] = test system: RXF 393 renal
[37] = test system: RXF-631 renal
[38] = test system: SF-268 CNS
[39] = test system: SF-295 CNS
[40] = test system: SF-539 CNS
[41] = test system: SK-MEL-2 melanoma
[42] = test system: SK-MEL-28 melanoma
[43] = test system: SK-MEL-5 melanoma
[44] = test system: SK-OV-3 ovarian
[45] = test system: SN12C renal
[46] = test system: SNB-19 CNS
[47] = test system: SNB-75 CNS
[48] = test system: SNB-78 CNS
[49] = test system: SW-620 colon
[50] = test system: TK-10 renal
[51] = test system: UACC-257 melanoma
[52] = test system: UACC-62 melanoma
[53] = test system: UO-31 renal
[54] = test system: XF 498 CNS
[55] = test system: CCRF-CEM leukemia
[56] = test system: HOP-18 NSCLC
[57] = test system: KM12 colon
[58] = test system: U251 CNS

O=C(CC1(O)C(=O)Nc2ccccc21)c1ccc2ccccc2c1 (centres undefined)
TGI [1]: > 100 µM
TGI [2]: > 100 µM
TGI [3]: > 100 µM
TGI [4]: > 100 µM
TGI [5]: > 100 µM
TGI [6]: > 100 µM
TGI [7]: > 100 µM
TGI [8]: > 100 µM
TGI [9]: > 100 µM
TGI [10]: > 100 µM
TGI [11]: > 100 µM
TGI [12]: > 100 µM
TGI [13]: > 100 µM
TGI [14]: > 100 µM
TGI [15]: > 100 µM
TGI [16]: > 100 µM
TGI [17]: > 100 µM
TGI [18]: > 100 µM
TGI [19]: > 100 µM
TGI [20]: > 100 µM
TGI [21]: > 100 µM
TGI [22]: > 100 µM
TGI [23]: > 100 µM
TGI [24]: > 100 µM
TGI [25]: > 100 µM
TGI [26]: > 100 µM
TGI [27]: > 100 µM
TGI [28]: > 100 µM
TGI [29]: > 100 µM
TGI [30]: > 100 µM
TGI [31]: > 100 µM
TGI [32]: > 100 µM
TGI [33]: > 100 µM
TGI [34]: > 100 µM
TGI [35]: > 100 µM
TGI [36]: > 100 µM
TGI [37]: > 100 µM
TGI [38]: > 100 µM
TGI [39]: > 100 µM
TGI [40]: > 100 µM
TGI [41]: > 100 µM
TGI [42]: > 100 µM
TGI [43]: > 100 µM
TGI [44]: > 100 µM
TGI [45]: > 100 µM
TGI [46]: > 100 µM
TGI [47]: > 100 µM
TGI [48]: > 100 µM
TGI [49]: > 100 µM
TGI [50]: > 100 µM
TGI [51]: > 100 µM
TGI [52]: > 100 µM
TGI [53]: > 100 µM
TGI [54]: > 100 µM

O=S(=O)(SCCCCSS(=O)(=O)c1ccc(Cl)cc1)c1ccc(Cl)cc1
TGI [1]: 21.4 µM
TGI [2]: 32.9 µM
TGI [3]: 37.2 µM
TGI [4]: 31 µM
TGI [5]: 27.8 µM
TGI [55]: 4.5 µM
TGI [6]: 28.2 µM
TGI [7]: 27.5 µM
TGI [8]: 20.7 µM
TGI [9]: 23.3 µM
TGI [11]: 34.1 µM
TGI [12]: 24.3 µM
TGI [13]: 27.4 µM
TGI [14]: 8.85 µM
TGI [56]: 32.9 µM
TGI [15]: 36.6 µM
TGI [16]: 21 µM
TGI [17]: 32.1 µM
TGI [18]: 19.4 µM
TGI [19]: 48.8 µM
TGI [57]: 22.8 µM
TGI [20]: 33.8 µM
TGI [21]: 11.3 µM
TGI [22]: 24.7 µM
TGI [23]: 27.7 µM
TGI [24]: 30.8 µM
TGI [25]: 32.4 µM
TGI [26]: 10.1 µM
TGI [28]: 22.9 µM
TGI [29]: 29.5 µM
TGI [30]: 17 µM
TGI [31]: 28 µM
TGI [32]: 33.5 µM
TGI [33]: 30.4 µM
TGI [34]: 25.5 µM
TGI [35]: 28.5 µM
TGI [36]: 34.2 µM
TGI [37]: 21.5 µM
TGI [38]: 29.1 µM
TGI [39]: 15.2 µM
TGI [40]: 25 µM
TGI [41]: 33.2 µM
TGI [42]: 34.3 µM
TGI [43]: 30.5 µM
TGI [44]: 30.1 µM
TGI [45]: 22.5 µM
TGI [46]: 28 µM
TGI [47]: 33.3 µM
TGI [48]: 56.4 µM
TGI [49]: 23 µM
TGI [50]: 47.7 µM
TGI [58]: 21 µM
TGI [51]: 37.2 µM
TGI [52]: 28.9 µM
TGI [53]: 21.1 µM
